How the values were obtained:
Experiment in all cases: relative viability (nuclei count vs DMSO), 5 days (fraction); higher = more cells survive
[1] = system: A-427
Outline: (§1)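 Five library-drug doses in √10 steps were combined with a fixed anchor-drug dose, or a single drug was given alone, by pin tool to lung cancer cell lines in 1536-well plates the day after seeding. Nuclei were stained and counted after 5 days. Relative viability is the nuclei count in treated wells over that in vehicle wells, taken as the median of duplicate plates.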

[2] = system: COR-L 105
Outline: as §1

[3] = system: EMC-BAC-2
Outline: as §1

[4] = system: HARA
Outline: as §1

[5] = system: HCC-366
Outline: as §1

[6] = system: HCC-827
Outline: as §1

[7] = system: HOP-62
Outline: as §1

[8] = system: LCLC-103H
Outline: as §1

[9] = system: NCI-H1395
Outline: as §1

[10] = system: NCI-H1437
Outline: as §1

[11] = system: NCI-H1755
Outline: as §1

[12] = system: NCI-H1792
Outline: as §1

[13] = system: NCI-H1915
Outline: as §1

[14] = system: NCI-H2009
Outline: as §1

[15] = system: NCI-H23
Outline: as §1

[16] = system: NCI-H460
Outline: as §1

[17] = system: NCI-H522
Outline: as §1

[18] = system: NCI-H727
Outline: as §1

[19] = system: SK-LU-1
Outline: as §1

[20] = system: SW 1573
Outline: as §1

COc1cc2nccc(Oc3ccc(NC(=O)Nc4cc(C)on4)c(Cl)c3)c2cc1OC [Tivozanib] + Nc1ncn([C@H]2C[C@H](O)[C@@H](CO)O2)c(=O)n1 [Decitabine] (partner 2 µM)
relative viability ([1]; first compound 0.005 µM): 0.566
relative viability ([1]; first compound 0.01581 µM): 0.551
relative viability ([1]; first compound 0.05 µM): 0.575
relative viability ([1]; first compound 0.1581 µM): 0.566
relative viability ([1]; first compound 0.5 µM): 0.543
relative viability ([2]; first compound 0.005 µM): 0.677
relative viability ([2]; first compound 0.01581 µM): 0.638
relative viability ([2]; first compound 0.05 µM): 0.731
relative viability ([2]; first compound 0.1581 µM): 0.627
relative viability ([2]; first compound 0.5 µM): 0.628
relative viability ([3]; first compound 0.005 µM): 1.02
relative viability ([3]; first compound 0.01581 µM): 0.977
relative viability ([3]; first compound 0.05 µM): 0.952
relative viability ([3]; first compound 0.1581 µM): 0.927
relative viability ([3]; first compound 0.5 µM): 0.975
relative viability ([4]; first compound 0.005 µM): 0.469
relative viability ([4]; first compound 0.01581 µM): 0.571
relative viability ([4]; first compound 0.05 µM): 0.59
relative viability ([4]; first compound 0.1581 µM): 0.652
relative viability ([4]; first compound 0.5 µM): 0.793
relative viability ([5]; first compound 0.005 µM): 0.334
relative viability ([5]; first compound 0.01581 µM): 0.306
relative viability ([5]; first compound 0.05 µM): 0.346
relative viability ([5]; first compound 0.1581 µM): 0.349
relative viability ([5]; first compound 0.5 µM): 0.378
relative viability ([6]; first compound 0.005 µM): 0.264
relative viability ([6]; first compound 0.01581 µM): 0.345
relative viability ([6]; first compound 0.05 µM): 0.311
relative viability ([6]; first compound 0.1581 µM): 0.289
relative viability ([6]; first compound 0.5 µM): 0.268
relative viability ([7]; first compound 0.005 µM): 0.247
relative viability ([7]; first compound 0.01581 µM): 0.187
relative viability ([7]; first compound 0.05 µM): 0.2
relative viability ([7]; first compound 0.1581 µM): 0.256
relative viability ([7]; first compound 0.5 µM): 0.223
relative viability ([8]; first compound 0.005 µM): 0.615
relative viability ([8]; first compound 0.01581 µM): 0.708
relative viability ([8]; first compound 0.05 µM): 0.732
relative viability ([8]; first compound 0.1581 µM): 0.685
relative viability ([8]; first compound 0.5 µM): 0.744
relative viability ([9]; first compound 0.005 µM): 0.671
relative viability ([9]; first compound 0.01581 µM): 0.672
relative viability ([9]; first compound 0.05 µM): 0.732
relative viability ([9]; first compound 0.1581 µM): 0.713
relative viability ([9]; first compound 0.5 µM): 0.617
relative viability ([10]; first compound 0.005 µM): 0.629
relative viability ([10]; first compound 0.01581 µM): 0.582
relative viability ([10]; first compound 0.05 µM): 0.594
relative viability ([10]; first compound 0.1581 µM): 0.653
relative viability ([10]; first compound 0.5 µM): 0.564
relative viability ([11]; first compound 0.005 µM): 0.716
relative viability ([11]; first compound 0.01581 µM): 0.74
relative viability ([11]; first compound 0.05 µM): 0.688
relative viability ([11]; first compound 0.1581 µM): 0.744
relative viability ([11]; first compound 0.5 µM): 0.704
relative viability ([12]; first compound 0.005 µM): 0.514
relative viability ([12]; first compound 0.01581 µM): 0.538
relative viability ([12]; first compound 0.05 µM): 0.574
relative viability ([12]; first compound 0.5 µM): 0.499
relative viability ([13]; first compound 0.005 µM): 0.281
relative viability ([13]; first compound 0.01581 µM): 0.281
relative viability ([13]; first compound 0.05 µM): 0.253
relative viability ([13]; first compound 0.1581 µM): 0.293
relative viability ([13]; first compound 0.5 µM): 0.268
relative viability ([14]; first compound 0.005 µM): 0.388
relative viability ([14]; first compound 0.01581 µM): 0.329
relative viability ([14]; first compound 0.05 µM): 0.382
relative viability ([14]; first compound 0.1581 µM): 0.369
relative viability ([14]; first compound 0.5 µM): 0.368
relative viability ([15]; first compound 0.005 µM): 0.304
relative viability ([15]; first compound 0.01581 µM): 0.279
relative viability ([15]; first compound 0.05 µM): 0.3
relative viability ([15]; first compound 0.5 µM): 0.309
relative viability ([16]; first compound 0.005 µM): 0.449
relative viability ([16]; first compound 0.01581 µM): 0.468
relative viability ([16]; first compound 0.05 µM): 0.48
relative viability ([16]; first compound 0.1581 µM): 0.62
relative viability ([16]; first compound 0.5 µM): 0.482
relative viability ([17]; first compound 0.005 µM): 0.702
relative viability ([17]; first compound 0.01581 µM): 0.68
relative viability ([17]; first compound 0.05 µM): 0.696
relative viability ([17]; first compound 0.1581 µM): 0.665
relative viability ([17]; first compound 0.5 µM): 0.577
relative viability ([18]; first compound 0.005 µM): 0.836
relative viability ([18]; first compound 0.01581 µM): 0.929
relative viability ([18]; first compound 0.05 µM): 0.85
relative viability ([18]; first compound 0.1581 µM): 0.59
relative viability ([18]; first compound 0.5 µM): 0.905
relative viability ([19]; first compound 0.005 µM): 0.647
relative viability ([19]; first compound 0.01581 µM): 0.643
relative viability ([19]; first compound 0.05 µM): 0.644
relative viability ([19]; first compound 0.1581 µM): 0.392
relative viability ([19]; first compound 0.5 µM): 0.618
relative viability ([20]; first compound 0.005 µM): 0.461
relative viability ([20]; first compound 0.01581 µM): 0.446
relative viability ([20]; first compound 0.05 µM): 0.487
relative viability ([20]; first compound 0.1581 µM): 0.376
relative viability ([20]; first compound 0.5 µM): 0.451
